Laboratory results: patent US20050009924A1 (priority 2003, published 2005)

Legend:
[1] = tested on: transcriptional activity of hTERT; assay: SEAP reporter assay of hTERT expression, PhTERT-SEAP (H1299); assay type: cell-based, human; conditions: Homo sapiens, NCI-H1299, H1299, read-out: Relative SEAP activity (%)
Procedure, shortened: (§1)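 Read-out: rate of absorbance rise at 405 nm from p-nitrophenyl phosphate (12 mM final) hydrolysis by secreted alkaline phosphatase in heat-treated (65° C, 10 min) culture medium. Drugs at varying amounts were applied for 24 h after a 24 h pre-culture at 37° C.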

human hepatoma G2 cells = assay: Cytotoxicity assay (XTT colorimetric), Hep G2; assay type: cell-based; conditions: Homo sapiens, HepG2; 48 h of drug exposure
[2] = tested on: transcriptional activity of hTERT; assay: SEAP reporter assay of hTERT expression, PhTERT-SEAP (hTERT-BJ1); assay type: cell-based, human; conditions: Homo sapiens, hTERT-BJ1, read-out: Relative SEAP activity (%)
Procedure, shortened: as §1

rat glioma C6 cells = assay: Cytotoxicity assay (XTT colorimetric), C6 cells; assay type: cell-based; conditions: Rattus norvegicus, C6; 48 h of drug exposure
[3] = tested on: iron-induced lipid peroxidation in rat brain homogenates; assay: Iron-induced lipid peroxidation in rat brain homogenates; conditions: 10 mM; mean percent inhibition (Table 3)
[4] = MTT relative viability, PhTERT-SEAP (hTERT-BJ1) cells; conditions: human
[5] = MTT relative viability, PhTERT-SEAP (H1299) cells; conditions: human

Structure (SMILES): CCCC(=O)Oc1cccc2c1C(=O)c1cccc(OC(=O)CCC)c1C2=O [IIIb, 1,5-Bis(butyryloxy)-anthraquinone]
- activity at 2.6 µM ([1]; 2.6 μM): 114 ± 7.9%
- activity at 26 µM ([1]; 26 μM): 118 ± 8.4%
- activity at 260 µM ([1]; 260 μM): 111 ± 4.4%
- melting point: 211 to 213 °C
- IC50 (human hepatoma G2 cells): 0.02 ± 0.01 µM
- activity at 2.6 µM ([2]; 2.6 μM): 107 ± 11.9%
- activity at 26 µM ([2]; 26 μM): 119 ± 8.3%
- activity at 260 µM ([2]; 260 μM): 134 ± 3.8%
- IC50 (rat glioma C6 cells): 38.5 ± 2.8 µM
- Inhibition of LP(10 mM) [3]: 54 ± 2.2%
- viability at 48 h, 2.6 µM [4]: 109 ± 5.1%
- viability at 48 h, 26 µM [4]: 106 ± 5.6%
- viability at 48 h, 260 µM [4]: 85 ± 6.6%
- viability at 48 h, 2.6 µM [5]: 107 ± 5.6%
- viability at 48 h, 26 µM [5]: 106 ± 3.2%
- viability at 48 h, 260 µM [5]: 87 ± 6.5%

Structure (SMILES): CCCCCC(=O)Oc1cccc2c1C(=O)c1cccc(OC(=O)CCCCC)c1C2=O [IIIc, 1,5-Bis(hexanoyloxy)-anthraquinone]
- activity at 2.3 µM ([1]; 2.3 μM): 91 ± 9.9%
- activity at 23 µM ([1]; 23 μM): 95 ± 17.4%
- activity at 230 µM ([1]; 230 μM): 95 ± 10.5%
- melting point: 183 to 184 °C
- IC50 (human hepatoma G2 cells): 36.2 ± 2.5 µM
- activity at 2.3 µM ([2]; 2.3 μM): 147 ± 18.8%
- activity at 23 µM ([2]; 23 μM): 149 ± 16.1%
- activity at 230 µM ([2]; 230 μM): 124 ± 5.3%
- IC50 (rat glioma C6 cells): 39.1 ± 4.1 µM
- Inhibition of LP(10 mM) [3]: −55 ± 1.5^ %
- viability at 48 h, 2.3 µM [4]: 119 ± 9.4%
- viability at 48 h, 23 µM [4]: 98 ± 13.4%
- viability at 48 h, 230 µM ([4]; hTERT-BJ1 cells, stable PhTERT-SEAP reporter clone): 62 ± 6.4%
- viability at 48 h, 2.3 µM [5]: 117 ± 5.1%
- viability at 48 h, 23 µM [5]: 114 ± 4.7%
- viability at 48 h, 230 µM [5]: 106 ± 4.3%

Structure (SMILES): O=C(Oc1cccc2c1C(=O)c1cccc(OC(=O)c3ccccc3)c1C2=O)c1ccccc1 [IIIe, 1,5-Bis(benzoyloxy)-anthraquinone]
- activity at 2.2 µM ([1]; 2.2 μM): 88 ± 10%
- activity at 22 µM ([1]; 22 μM): 94 ± 8%
- activity at 220 µM ([1]; 220 μM): 86 ± 4.7%
- melting point: 336 to 338 °C
- IC50 (human hepatoma G2 cells): 47.7 ± 5.5 µM
- activity at 2.2 µM ([2]; 2.2 μM): 137 ± 10%
- activity at 22 µM ([2]; 22 μM): 122 ± 9.6%
- activity at 220 µM ([2]; 220 μM): 84 ± 21.7%
- IC50 (rat glioma C6 cells): 38.7 ± 3.6 µM
- Inhibition of LP(10 mM) [3]: −50 ± 1.9^ %
- viability at 48 h, 2.2 µM [4]: 103 ± 6.5%
- viability at 48 h, 22 µM [4]: 87 ± 9.8%
- viability at 48 h, 220 µM [4]: 51 ± 4.6%
- viability at 48 h, 2.2 µM [5]: 99 ± 7.3%
- viability at 48 h, 22 µM [5]: 60 ± 11.9%
- viability at 48 h, 220 µM [5]: 33 ± 4.7%

Structure (SMILES): Cc1ccccc1C(=O)Oc1cccc2c1C(=O)c1cccc(OC(=O)c3ccccc3C)c1C2=O [IIIj, 1,5-Bis(2-toluoyloxy)-anthraquinone]
- activity at 2.1 µM ([1]; 2.1 μM): 97 ± 4.4%
- activity at 21 µM ([1]; 21 μM): 91 ± 7.4%
- activity at 210 µM ([1]; 210 μM): 90 ± 4.2%
- melting point: 262 to 263 °C
- IC50 (human hepatoma G2 cells): 21.6 ± 2.2 µM
- activity at 2.1 µM ([2]; 2.1 μM): 129 ± 13%
- activity at 21 µM ([2]; 21 μM): 120 ± 24%
- activity at 210 µM ([2]; 210 μM): 94 ± 27.1%
- IC50 (rat glioma C6 cells): 25.1 ± 2.8 µM
- Inhibition of LP(10 mM) [3]: 23 ± 1.1%
- viability at 48 h, 2.1 µM [4]: 118 ± 11.6%
- viability at 48 h, 21 µM [4]: 82 ± 8.5%
- viability at 48 h, 210 µM [4]: 39 ± 13%
- viability at 48 h, 2.1 µM [5]: 72 ± 4.9%
- viability at 48 h, 21 µM [5]: 36 ± 9.7%
- viability at 48 h, 210 µM [5]: 45 ± 8%
